Laboratory results: patent US8546381B2, “Bridged heterocyclic compounds and methods of use” (Medivation Technologies, Inc., priority 2008, dated 2013)

target: T1, human recombinant serotonin (5-Hydroxytryptamine) 5-HT2C receptor (Homo sapiens, UniProt P28335); test: Serotonin 5-HT2C radioligand binding ([3H]Mesulergine); conditions: read-out: Serotonin 5-HT2C, inhibition of ligand binding (1 μM)
T1 construct: expressed in transfected cells; host or cells: CHO-K1 cells
T1 sequence (P28335 33-458): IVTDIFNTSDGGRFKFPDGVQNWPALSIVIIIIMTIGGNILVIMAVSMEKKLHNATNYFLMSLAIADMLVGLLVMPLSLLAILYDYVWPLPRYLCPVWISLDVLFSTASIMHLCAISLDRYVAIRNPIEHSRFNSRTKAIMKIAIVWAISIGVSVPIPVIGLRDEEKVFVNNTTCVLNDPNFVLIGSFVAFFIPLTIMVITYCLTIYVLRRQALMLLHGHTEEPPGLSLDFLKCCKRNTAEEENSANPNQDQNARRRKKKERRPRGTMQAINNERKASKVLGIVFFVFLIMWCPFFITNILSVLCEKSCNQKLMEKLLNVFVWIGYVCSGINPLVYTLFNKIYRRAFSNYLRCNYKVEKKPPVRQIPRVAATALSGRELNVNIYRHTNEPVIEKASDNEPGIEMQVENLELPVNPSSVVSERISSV
Procedure: To evaluate in radioligand binding assays the activity of compounds of the invention, human recombinant serotonin (5-Hydroxytryptamine) 5-HT2C receptor expressed in Chinese hamster ovary (CHO-K1) cells (Wolf, W. A. and Schutz, J. S., J. Neurochem. 69:1449, 1997) in a modified Tris-HCl buffer (50 mM Tris-HCl, pH 7.4, 0.1% Ascorbic Acid, 10 μM Pargyline) was used. Compounds of the invention were incubated with 1 nM [^3H]Mesulergine for 60 minutes at 25° C. Non-specific binding was estimated in the presence of 1 μM Mianserin. Receptor proteins were filtered and washed, the filters were then counted to determine [^3H]Mesulergine specifically bound. Compounds were screened at 1 μM or lower, using 1% DMSO as vehicle. Biochemical assay results are presented as the percent inhibition of specific binding in Table 4.

Point of comparison: `C/C(=C\n1c2c(c3cc(C)ccc31)C1CCC(C2)N1C)c1cccnc1` (centres unmarked) [Compound 129], inhibition at 1 µM 72%. Against it:
- C/C(=C\n1c2c(c3cc(Cl)ccc31)C1CCC(C2)N1C)c1cccnc1 (centres unmarked) [Compound 128] — higher, 77%
- C/C(=C\n1c2c(c3cc(Cl)ccc31)C1CCC(C2)N1C)c1ccc(Cl)c(Cl)c1 (centres unmarked) [Compound 132] — higher, 95%
- COc1ccc(C#Cn2c3c(c4cc(Cl)ccc42)C2CCC(C3)N2C)cc1F (centres unmarked) [Compound 154] — higher, 97%
- C/C(=C\n1c2c(c3cc(C)ccc31)C1CCC(C2)N1C)c1ccccc1F (centres unmarked) [Compound 164] — higher, 93%
- COc1ccc(C#Cn2c3c(c4cc(C)ccc42)C2CCC(C3)N2C)cc1F (centres unmarked) [Compound 155] — higher, 99%

target: T2, human recombinant dopamine D2L receptor (Homo sapiens, UniProt P14416); test: Dopamine D2L radioligand binding ([3H]Spiperone); conditions: read-out: Dopamine (1 μM) D2L, inhibition of ligand binding
T2 construct: expressed in transfected cells; host or cells: CHO cells
Procedure: To evaluate in radioligand binding assays the activity of compounds of the invention, human recombinant dopamine D2L receptor expressed in Chinese hamster ovary (CHO) cells (Grandy, D. K. et al. Proc. Natl. Acad. Sci. USA. 86:9762, 1989; Hayes, G. et al., Mol. Endocrinol. 6:920, 1992) in a modified Tris-HCl buffer (50 mM Tris-HCl, pH 7.4, 1.4 mM Ascorbic Acid, 0.001% BSA, 150 mM NaCl) was used. Compounds of the invention were incubated with 0.16 nM [^3H]Spiperone for 120 minutes at 25° C. Non-specific binding was estimated in the presence of 10 μM Haloperidol. Receptor proteins were filtered and washed, the filters were then counted to determine [^3H]Spiperone specifically bound. Compounds were screened at 1 μM or lower, using 1% DMSO as vehicle. Biochemical assay results are presented as the percent inhibition of specific binding in Table 3.

T2 sequence (P14416 whole entry): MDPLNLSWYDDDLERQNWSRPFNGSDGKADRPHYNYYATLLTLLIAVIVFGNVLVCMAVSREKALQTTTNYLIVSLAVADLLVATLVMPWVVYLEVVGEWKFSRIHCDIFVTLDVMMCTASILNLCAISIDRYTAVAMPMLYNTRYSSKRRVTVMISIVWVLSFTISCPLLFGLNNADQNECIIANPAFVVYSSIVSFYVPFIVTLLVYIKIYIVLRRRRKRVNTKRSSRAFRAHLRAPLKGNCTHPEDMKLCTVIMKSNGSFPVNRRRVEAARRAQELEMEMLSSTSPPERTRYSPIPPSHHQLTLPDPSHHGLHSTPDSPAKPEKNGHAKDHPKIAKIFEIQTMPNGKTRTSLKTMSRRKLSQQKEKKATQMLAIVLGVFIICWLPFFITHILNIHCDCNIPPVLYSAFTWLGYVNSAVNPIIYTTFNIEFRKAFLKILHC

Point of comparison: `C/C(=C\n1c2c(c3cc(C)ccc31)C1CCC(C2)N1C)c1cccnc1` (centres unmarked) [Compound 129], inhibition at 1 µM 8%. Against it:
- C/C(=C\n1c2c(c3cc(Cl)ccc31)C1CCC(C2)N1C)c1cccnc1 (centres unmarked) [Compound 128] — higher, 21%
- COc1ccc(C#Cn2c3c(c4cc(Cl)ccc42)C2CCC(C3)N2C)cc1F (centres unmarked) [Compound 154] — higher, 13%
- C/C(=C\n1c2c(c3cc(C)ccc31)C1CCC(C2)N1C)c1ccccc1F (centres unmarked) [Compound 164] — higher, 12%
- COc1ccc(C#Cn2c3c(c4cc(C)ccc42)C2CCC(C3)N2C)cc1F (centres unmarked) [Compound 155] — higher, 10%

target: T3, human recombinant serotonin (5-Hydroxytryptamine) 5-HT6 receptor (Homo sapiens, UniProt P50406); test: Serotonin 5-HT6 radioligand binding ([3H]LSD); conditions: read-out: Serotonin 5-HT6, inhibition of ligand binding (1 μM)
T3 construct: expressed in transfected cells; host or cells: human HeLa cells
Procedure: To evaluate in radioligand binding assays the activity of compounds of the invention, human recombinant serotonin (5-Hydroxytryptamine) 5-HT6 receptor expressed in human HeLa cells (Monsma, F. J. Jr. et al., Mol. Pharmacol. 43:320, 1993) in a modified Tris-HCl buffer (50 mM Tris-HCl, pH 7.4, 150 mM NaCl, 2 mM Ascorbic Acid, 0.001% BSA) was used. Compounds of the invention were incubated with 1.5 nM [3H]Lysergic acid diethylamide (LSD) for 120 minutes at 37° C. Non-specific binding was estimated in the presence of 5 μM Serotonin (5-HT). Receptor proteins were filtered and washed, the filters were then counted to determine [3H]LSD specifically bound. Compounds were screened at 1 μM or lower, using 1% DMSO as vehicle. Biochemical assay results are presented as the percent inhibition of specific binding in Table 4.

T3 sequence (P50406 whole entry): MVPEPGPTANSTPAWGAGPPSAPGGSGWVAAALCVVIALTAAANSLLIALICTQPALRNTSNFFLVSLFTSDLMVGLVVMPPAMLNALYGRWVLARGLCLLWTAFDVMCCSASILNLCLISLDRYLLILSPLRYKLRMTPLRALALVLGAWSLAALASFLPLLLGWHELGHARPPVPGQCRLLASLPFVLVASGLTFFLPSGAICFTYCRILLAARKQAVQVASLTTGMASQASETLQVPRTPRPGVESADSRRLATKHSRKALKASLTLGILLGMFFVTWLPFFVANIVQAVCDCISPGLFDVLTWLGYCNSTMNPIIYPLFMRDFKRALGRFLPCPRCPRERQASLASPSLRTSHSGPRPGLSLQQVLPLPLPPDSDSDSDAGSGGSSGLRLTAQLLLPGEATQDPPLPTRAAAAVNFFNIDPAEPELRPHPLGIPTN

Point of comparison: `C/C(=C\n1c2c(c3cc(Cl)ccc31)C1CCC(C2)N1C)c1ccc(Cl)c(Cl)c1` (centres unmarked) [Compound 132], inhibition at 1 µM 31%. Against it:
- C/C(=C\n1c2c(c3cc(Cl)ccc31)C1CCC(C2)N1C)c1cccnc1 (centres unmarked) [Compound 128] — higher, 62%
- COc1ccc(C#Cn2c3c(c4cc(Cl)ccc42)C2CCC(C3)N2C)cc1F (centres unmarked) [Compound 154] — the same, 31%
- C/C(=C\n1c2c(c3cc(C)ccc31)C1CCC(C2)N1C)c1ccccc1F (centres unmarked) [Compound 164] — higher, 57%
- C/C(=C\n1c2c(c3cc(C)ccc31)C1CCC(C2)N1C)c1cccnc1 (centres unmarked) [Compound 129] — lower, 19%
- COc1ccc(C#Cn2c3c(c4cc(C)ccc42)C2CCC(C3)N2C)cc1F (centres unmarked) [Compound 155] — higher, 49%

target: T4, human recombinant serotonin (5-Hydroxytryptamine) 5-HT7 receptor (Homo sapiens, UniProt P34969); test: Serotonin 5-HT7 radioligand binding ([3H]LSD); conditions: read-out: Serotonin 5-HT7, inhibition of ligand binding (1 μM)
T4 construct: expressed in transfected cells; host or cells: CHO cells
Procedure: To evaluate in radioligand binding assays the activity of compounds of the invention, human recombinant serotonin (5-Hydroxytryptamine) 5-HT7 receptor expressed in Chinese hamster ovary (CHO) cells (Roth, B. L. et al., J. Pharmacol. Exp. Ther. 268:1403, 1994; Shen, Y. et al., J. Biol. Chem. 268:18200, 1993) in a modified Tris-HCl buffer (50 mM Tris-HCl, pH 7.4, 10 mM MgCl2, 0.5 mM EDTA) was used. Compounds of invention were incubated with 5.5 nM [^3H] Lysergic acid diethylamide (LSD) for 2 hours at 25° C. Non-specific binding was estimated in the presence of 10 μM Serotonin (5-HT). Receptor proteins were filtered and washed, the filters were then counted to determine [^3H]LSD specifically bound. Compounds were screened at 1 μM or lower, using 1% DMSO as vehicle. Biochemical assay results are presented as the percent inhibition of specific binding in Table 4.

T4 sequence (P34969 whole entry): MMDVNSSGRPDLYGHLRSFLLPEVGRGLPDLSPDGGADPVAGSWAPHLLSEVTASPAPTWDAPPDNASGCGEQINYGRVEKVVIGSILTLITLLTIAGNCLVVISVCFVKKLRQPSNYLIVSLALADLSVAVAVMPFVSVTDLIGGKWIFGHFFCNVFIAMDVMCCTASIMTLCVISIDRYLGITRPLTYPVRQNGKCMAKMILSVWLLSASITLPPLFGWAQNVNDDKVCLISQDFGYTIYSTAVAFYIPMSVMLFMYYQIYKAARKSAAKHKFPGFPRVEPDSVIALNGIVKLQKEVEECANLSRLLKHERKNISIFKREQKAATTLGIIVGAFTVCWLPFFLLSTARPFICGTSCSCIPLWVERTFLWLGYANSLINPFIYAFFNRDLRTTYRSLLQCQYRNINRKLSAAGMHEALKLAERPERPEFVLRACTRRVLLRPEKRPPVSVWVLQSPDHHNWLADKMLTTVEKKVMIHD

Point of comparison: `COc1ccc(C#Cn2c3c(c4cc(Cl)ccc42)C2CCC(C3)N2C)cc1F` (centres unmarked) [Compound 154], inhibition at 1 µM 21%. Against it:
- C/C(=C\n1c2c(c3cc(Cl)ccc31)C1CCC(C2)N1C)c1cccnc1 (centres unmarked) [Compound 128] — higher, 66%
- C/C(=C\n1c2c(c3cc(Cl)ccc31)C1CCC(C2)N1C)c1ccc(Cl)c(Cl)c1 (centres unmarked) [Compound 132] — higher, 81%
- C/C(=C\n1c2c(c3cc(C)ccc31)C1CCC(C2)N1C)c1ccccc1F (centres unmarked) [Compound 164] — higher, 96%
- C/C(=C\n1c2c(c3cc(C)ccc31)C1CCC(C2)N1C)c1cccnc1 (centres unmarked) [Compound 129] — higher, 80%
- COc1ccc(C#Cn2c3c(c4cc(C)ccc42)C2CCC(C3)N2C)cc1F (centres unmarked) [Compound 155] — higher, 24%

target: T5, human recombinant serotonin (5-Hydroxytryptamine) 5-HT2A receptor (Homo sapiens, UniProt P28223); test: Serotonin 5-HT2A radioligand binding ([3H]Ketanserin); conditions: read-out: Serotonin 5-HT2A, inhibition of ligand binding (1 μM)
T5 construct: expressed in transfected cells; host or cells: CHO-K1 cells
Procedure: To evaluate in radioligand binding assays the activity of compounds of the invention, human recombinant serotonin (5-Hydroxytryptamine) 5-HT2A receptor expressed in Chinese hamster ovary (CHO-K1) cells (Bonhaus, D. W. et al. Br. J. Pharmacol. 115:622, 1995; Saucier, C. and Albert, P. R., J. Neurochem. 68:1998, 1997) in a 50 mM Tris-HCl buffer, pH 7.4, was used. Compounds of the invention were incubated with 0.5 nM [^3H]Ketanserin for 60 minutes at 25° C. Non-specific binding was estimated in the presence of 1 μM Mianserin. Receptor proteins were filtered and washed, the filters were then counted to determine [^3H]Ketanserin specifically bound. Compounds were screened at 1 μM or lower, using 1% DMSO as vehicle. Biochemical assay results are presented as the percent inhibition of specific binding in Table 4.

T5 sequence (P28223 whole entry): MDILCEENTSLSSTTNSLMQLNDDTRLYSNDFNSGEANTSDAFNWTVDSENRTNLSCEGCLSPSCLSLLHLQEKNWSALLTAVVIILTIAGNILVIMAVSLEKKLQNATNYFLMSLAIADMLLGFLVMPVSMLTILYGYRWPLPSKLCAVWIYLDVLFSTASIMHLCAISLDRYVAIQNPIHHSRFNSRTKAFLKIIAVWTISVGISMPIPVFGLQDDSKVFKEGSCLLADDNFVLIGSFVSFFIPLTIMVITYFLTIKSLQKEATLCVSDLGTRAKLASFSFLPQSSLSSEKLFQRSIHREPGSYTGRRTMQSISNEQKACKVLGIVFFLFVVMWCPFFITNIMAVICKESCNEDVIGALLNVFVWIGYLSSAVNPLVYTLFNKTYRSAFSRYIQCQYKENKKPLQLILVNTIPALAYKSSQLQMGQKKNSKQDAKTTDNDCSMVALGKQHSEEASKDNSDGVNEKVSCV

Point of comparison: `C/C(=C\n1c2c(c3cc(Cl)ccc31)C1CCC(C2)N1C)c1cccnc1` (centres unmarked) [Compound 128], inhibition at 1 µM 91%. Against it:
- C/C(=C\n1c2c(c3cc(Cl)ccc31)C1CCC(C2)N1C)c1ccc(Cl)c(Cl)c1 (centres unmarked) [Compound 132] — higher, 100%
- COc1ccc(C#Cn2c3c(c4cc(Cl)ccc42)C2CCC(C3)N2C)cc1F (centres unmarked) [Compound 154] — higher, 96%
- C/C(=C\n1c2c(c3cc(C)ccc31)C1CCC(C2)N1C)c1ccccc1F (centres unmarked) [Compound 164] — higher, 94%
- C/C(=C\n1c2c(c3cc(C)ccc31)C1CCC(C2)N1C)c1cccnc1 (centres unmarked) [Compound 129] — lower, 88%
- COc1ccc(C#Cn2c3c(c4cc(C)ccc42)C2CCC(C3)N2C)cc1F (centres unmarked) [Compound 155] — higher, 100%

target: T6, human recombinant histamine H1 receptor (Homo sapiens, UniProt P35367); test: Histamine H1 radioligand binding ([3H]Pyrilamine); conditions: compound at 1 μM; inhibition of specific [3H]Pyrilamine binding; read-out: Histamine Binding (1 μM) H1, Percentage Inhibition
T6 construct: expressed in transfected cells; host or cells: CHO cells
Procedure: To evaluate in radioligand binding assays the activity of compounds of the invention, human recombinant histamine H1 receptor expressed in Chinese hamster ovary (CHO) cells (De Backer, M. D. et al., Biochem. Biophys. Res. Comm. 197(3):1601, 1993) in a modified Tris-HCl buffer (50 mM Tris-HCl, pH 7.4, 2 mM MgCl2, 100 mM NaCl, 250 mM Sucrose) was used. Compounds of the invention were incubated with 1.2 nM [^3H]Pyrilamine for 180 minutes at 25° C. Non-specific binding was estimated in the presence of 1 μM pyrilamine. Receptor proteins were filtered and washed, the filters were then counted to determine [^3H]Pyrilamine specifically bound. Compounds were screened at 1 μM or lower, using 1% DMSO as vehicle. Biochemical assay results are presented as the percent inhibition of specific binding in Table 2.

T6 sequence (P35367 whole entry): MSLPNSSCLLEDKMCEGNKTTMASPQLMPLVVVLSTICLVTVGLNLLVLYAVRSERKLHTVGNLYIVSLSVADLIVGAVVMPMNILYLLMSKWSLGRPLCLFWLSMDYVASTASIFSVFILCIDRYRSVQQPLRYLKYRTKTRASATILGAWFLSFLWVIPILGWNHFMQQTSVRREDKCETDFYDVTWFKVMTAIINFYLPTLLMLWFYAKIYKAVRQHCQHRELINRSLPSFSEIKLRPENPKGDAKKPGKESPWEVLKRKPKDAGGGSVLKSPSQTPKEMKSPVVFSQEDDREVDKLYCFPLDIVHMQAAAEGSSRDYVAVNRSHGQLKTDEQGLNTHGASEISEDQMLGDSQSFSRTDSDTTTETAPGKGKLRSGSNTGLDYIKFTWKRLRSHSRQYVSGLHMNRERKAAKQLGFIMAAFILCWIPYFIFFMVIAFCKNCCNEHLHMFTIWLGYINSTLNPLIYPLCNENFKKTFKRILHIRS

Point of comparison: `C/C(=C\n1c2c(c3cc(Cl)ccc31)C1CCC(C2)N1C)c1ccc(Cl)c(Cl)c1` (centres unmarked) [Compound 132], inhibition at 1 µM 87%. Against it:
- C/C(=C\n1c2c(c3cc(Cl)ccc31)C1CCC(C2)N1C)c1cccnc1 (centres unmarked) [Compound 128] — lower, 15%
- COc1ccc(C#Cn2c3c(c4cc(Cl)ccc42)C2CCC(C3)N2C)cc1F (centres unmarked) [Compound 154] — lower, 30%
- C/C(=C\n1c2c(c3cc(C)ccc31)C1CCC(C2)N1C)c1ccccc1F (centres unmarked) [Compound 164] — lower, 65%
- C/C(=C\n1c2c(c3cc(C)ccc31)C1CCC(C2)N1C)c1cccnc1 (centres unmarked) [Compound 129] — lower, 5%
- COc1ccc(C#Cn2c3c(c4cc(C)ccc42)C2CCC(C3)N2C)cc1F (centres unmarked) [Compound 155] — lower, 10%

target: T7, human recombinant histamine H2 receptor (Homo sapiens, UniProt P25021); test: Histamine H2 radioligand binding ([125I]Aminopotentidine); conditions: compound at 1 μM; inhibition of specific [125I]Aminopotentidine binding; read-out: Histamine Binding (1 μM) H2, Percentage Inhibition
T7 construct: expressed in transfected cells; host or cells: CHO-K1 cells
Procedure: To evaluate in radioligand binding assays the activity of compounds of the invention, human recombinant histamine H2 receptor expressed in Chinese hamster ovary (CHO) K1 cells (Ruat, M., Proc. Natl. Acad. Sci. USA. 87(5):1658, 1990) in a 50 mM Phosphate buffer, pH 7.4 was used. Compounds of the invention were incubated with 0.1 nM [^125I]Aminopotentidine for 120 minutes at 25° C. Non-specific binding was estimated in the presence of 3 μM Tiotidine. Receptor proteins were filtered and washed, the filters were then counted to determine [^125I]Aminopotentidine specifically bound. Compounds were screened at 1 μM or lower, using 1% DMSO as vehicle. Biochemical assay results are presented as the percent inhibition of specific binding in Table 2.

T7 sequence (P25021 whole entry): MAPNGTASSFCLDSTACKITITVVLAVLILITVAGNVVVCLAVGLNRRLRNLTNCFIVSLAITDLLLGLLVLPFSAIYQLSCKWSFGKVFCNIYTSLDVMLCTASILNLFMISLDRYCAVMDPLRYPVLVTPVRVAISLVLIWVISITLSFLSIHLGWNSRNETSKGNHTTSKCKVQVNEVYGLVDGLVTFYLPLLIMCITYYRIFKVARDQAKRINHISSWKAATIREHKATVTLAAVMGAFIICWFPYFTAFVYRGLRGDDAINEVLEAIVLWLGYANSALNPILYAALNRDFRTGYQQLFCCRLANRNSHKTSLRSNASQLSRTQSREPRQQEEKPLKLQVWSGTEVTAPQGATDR

Point of comparison: `C/C(=C\n1c2c(c3cc(Cl)ccc31)C1CCC(C2)N1C)c1ccc(Cl)c(Cl)c1` (centres unmarked) [Compound 132], inhibition at 1 µM 99%. Against it:
- C/C(=C\n1c2c(c3cc(Cl)ccc31)C1CCC(C2)N1C)c1cccnc1 (centres unmarked) [Compound 128] — lower, 21%
- COc1ccc(C#Cn2c3c(c4cc(Cl)ccc42)C2CCC(C3)N2C)cc1F (centres unmarked) [Compound 154] — lower, 87%
- C/C(=C\n1c2c(c3cc(C)ccc31)C1CCC(C2)N1C)c1ccccc1F (centres unmarked) [Compound 164] — lower, 41%
- C/C(=C\n1c2c(c3cc(C)ccc31)C1CCC(C2)N1C)c1cccnc1 (centres unmarked) [Compound 129] — lower, 26%
- COc1ccc(C#Cn2c3c(c4cc(C)ccc42)C2CCC(C3)N2C)cc1F (centres unmarked) [Compound 155] — lower, 84%
